According to patent US20230141569A1, “FLUORESCENT DYE, AND PREPARATION METHOD AND USES THEREOF” (FLUORESCENCE DIAGNOSIS (SHANGHAI) BIOTECH COMPANY LTD., priority 2020, published 2023):

Tests used:
[1] = Viscosity response: fluorescence in glycerin vs methanol (Test Example 1); format: physicochemical; conditions: final concentration 1×10^−5 M; for Glycerin/Methanol Fluorescence Intensity Ratio: excited at maximum excitation wavelength of each dye; for Maximum Excitation Wavelength (nm): glycerin and methanol
RNA aptamer [2] = assay: Optical properties after binding to RNA aptamer (Test Example 4); format: biochemical; conditions: for Em/nm / Ex/nm / ε / QY (−): after binding to RNA aptamer; for QY (−): relative method with Rhodamine 6G as the standard; for compound fluorescence after binding to RNA aptamer: excited at a suitable wavelength
RNA aptamer [3] = assay: Labeling intracellular RNA aptamer in cells (Test Example 4, FIG. 20A/20B); format: cell-based; conditions: for fluorescence of cells expressing the RNA aptamer: FIG. 20A; for fluorescence of cells not expressing the RNA aptamer: FIG. 20B
Text: FIGS. 20A and 20B are the application of molecular rotors IV-1, IV-2, IV-3, IV-4, IV-5, IV-6, IV-17, IV-18, IV-19, IV-20, IV-21, IV-22 in labeling intracellular RNA aptamer, wherein FIG. 20A are cells expressing the target RNA aptamer, and FIG. 20B are cells not expressing the target RNA aptamer;

[4] = Fluorescence emission at different viscosity conditions, diethanol-glycerol mixed solution (Test Example 2); format: physicochemical; conditions: 1×10^−5 M, excited at 480 nm
mRNA of ACTB = assay: Flow detection of mRNA labeling in 293T/17 cells (Test Example 5); format: cell-based; conditions: 0.2 μM in PBS, 5 minutes incubation; for background fluorescence in flow detection: 293T/17 control cells
Text: FIGS. 21A and 21B are a flow detection diagram for molecular rotors IV-21 and IV-41 for labeling mRNA.

CN1C(=O)/C(=C/c2cc(F)c(O)c(F)c2)N=C1/C=C/c1ccc(O)cc1 [IV-3]
Glycerin/Methanol Fluorescence Intensity Ratio [1]: 951 | Maximum Excitation Wavelength (nm) [1]: 565 nm | Em/nm (RNA aptamer [2]): 565 nm | Ex/nm (RNA aptamer [2]): 490 nm | ε (RNA aptamer [2]): 26000 M⁻¹ cm⁻¹ | QY (−) (RNA aptamer [2]): 0.27 | compound fluorescence after binding to RNA aptamer (RNA aptamer [2]): noticeably activated | fluorescence of cells expressing the RNA aptamer (RNA aptamer [3]): bright fluorescence | fluorescence of cells not expressing the RNA aptamer (RNA aptamer [3]): no fluorescence | fluorescence intensity at different viscosity conditions [4]: gradually increasing fluorescence intensity

CN1C(=O)/C(=C/c2ccc(N(C)CCO)cc2)N=C1/C=C/c1ccc(C#N)cc1 [IV-21]
Glycerin/Methanol Fluorescence Intensity Ratio [1]: 655 | Maximum Excitation Wavelength (nm) [1]: 624 nm | Em/nm (RNA aptamer [2]): 624 nm | Ex/nm (RNA aptamer [2]): 534 nm | ε (RNA aptamer [2]): 26222 M⁻¹ cm⁻¹ | QY (−) (RNA aptamer [2]): 0.28 | compound fluorescence after binding to RNA aptamer (RNA aptamer [2]): noticeably activated | fluorescence of cells expressing the RNA aptamer (RNA aptamer [3]): bright fluorescence | fluorescence of cells not expressing the RNA aptamer (RNA aptamer [3]): no fluorescence | labeling of mRNA of ACTB in cell lines expressing target RNA (mRNA of ACTB; 293T/17, flow detection): could specifically label mRNA of ACTB | background fluorescence in flow detection (mRNA of ACTB): no obvious background fluorescence | fluorescence intensity at different viscosity conditions [4]: gradually increasing fluorescence intensity

CN1C(=O)/C(=C/c2ccc(N(C)CCO)cc2)N=C1/C=C/c1ccc(F)cc1 [IV-22]
Glycerin/Methanol Fluorescence Intensity Ratio [1]: 689 | Maximum Excitation Wavelength (nm) [1]: 580 nm | Em/nm (RNA aptamer [2]): 580 nm | Ex/nm (RNA aptamer [2]): 522 nm | ε (RNA aptamer [2]): 32000 M⁻¹ cm⁻¹ | QY (−) (RNA aptamer [2]): 0.46 | compound fluorescence after binding to RNA aptamer (RNA aptamer [2]): noticeably activated | fluorescence of cells expressing the RNA aptamer (RNA aptamer [3]): bright fluorescence | fluorescence of cells not expressing the RNA aptamer (RNA aptamer [3]): no fluorescence | fluorescence intensity at different viscosity conditions [4]: gradually increasing fluorescence intensity

CN1C(=O)/C(=C/c2cc(F)c(O)c(F)c2)N=C1/C=C/c1ccc(F)cc1 [IV-5]
Glycerin/Methanol Fluorescence Intensity Ratio [1]: 861 | Maximum Excitation Wavelength (nm) [1]: 570 nm | Em/nm (RNA aptamer [2]): 570 nm | Ex/nm (RNA aptamer [2]): 492 nm | ε (RNA aptamer [2]): 23000 M⁻¹ cm⁻¹ | QY (−) (RNA aptamer [2]): 0.33 | compound fluorescence after binding to RNA aptamer (RNA aptamer [2]): noticeably activated | fluorescence of cells expressing the RNA aptamer (RNA aptamer [3]): bright fluorescence | fluorescence of cells not expressing the RNA aptamer (RNA aptamer [3]): no fluorescence | fluorescence intensity at different viscosity conditions [4]: gradually increasing fluorescence intensity

CN1C(=O)/C(=C/c2ccc(N(C)CCO)cc2)N=C1/C=C/c1ccc(O)cc1 [IV-20]
Glycerin/Methanol Fluorescence Intensity Ratio [1]: 781 | Maximum Excitation Wavelength (nm) [1]: 577 nm | Em/nm (RNA aptamer [2]): 577 nm | Ex/nm (RNA aptamer [2]): 512 nm | ε (RNA aptamer [2]): 25500 M⁻¹ cm⁻¹ | QY (−) (RNA aptamer [2]): 0.36 | compound fluorescence after binding to RNA aptamer (RNA aptamer [2]): noticeably activated | fluorescence of cells expressing the RNA aptamer (RNA aptamer [3]): bright fluorescence | fluorescence of cells not expressing the RNA aptamer (RNA aptamer [3]): no fluorescence | fluorescence intensity at different viscosity conditions [4]: gradually increasing fluorescence intensity

CN1C(=O)/C(=C/c2ccc(N(C)CCO)cc2)N=C1/C=C/c1cccc(O)c1 [IV-17]
Glycerin/Methanol Fluorescence Intensity Ratio [1]: 655 | Maximum Excitation Wavelength (nm) [1]: 575 nm | Em/nm (RNA aptamer [2]): 582 nm | Ex/nm (RNA aptamer [2]): 524 nm | ε (RNA aptamer [2]): 32000 M⁻¹ cm⁻¹ | QY (−) (RNA aptamer [2]): 0.47 | compound fluorescence after binding to RNA aptamer (RNA aptamer [2]): noticeably activated | fluorescence of cells expressing the RNA aptamer (RNA aptamer [3]): bright fluorescence | fluorescence of cells not expressing the RNA aptamer (RNA aptamer [3]): no fluorescence | fluorescence intensity at different viscosity conditions [4]: gradually increasing fluorescence intensity

CN1C(=O)/C(=C/c2ccc(N(C)CCO)cc2)N=C1/C=C/c1ccccc1 [IV-41, reference compound]
background fluorescence in flow detection (mRNA of ACTB): higher than that of IV-21
